Experimental data from patent US4335249A, “Herbicidal diphenyl ethers, sulfides, sulfoxides and sulfones” (Rohm and Haas Company, priority 1976, dated 1982).

Tests used:
Assay type in all cases: in vivo
[1] = tested on: cocklebur (Xanthium pensylvanicum); assay: Preemergence herbicidal activity, cocklebur; conditions: Xanthium strumarium, pre-emergence, 336 h, 4 lb/A
Method in brief: (§1)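 Spray application (acetone, water dilution; 50 gal per acre carrier; dose as lb/A) onto seeded soil flats. Preemergence flats sprayed on the day of planting; postemergence flats after two weeks of germination. Kill % evaluated about two weeks afterward.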

[2] = tested on: marigold (Tagetes spp.); assay: Preemergence herbicidal activity, marigold; conditions: pre-emergence, 336 h, 4 lb/A
Method in brief: as §1

[3] = tested on: morningglory (Ipomoca spp.); assay: Preemergence herbicidal activity, morningglory; conditions: Ipomoea, pre-emergence, 336 h, 4 lb/A
Method in brief: as §1

[4] = tested on: tomato (Lycopersicon esculentum); assay: Preemergence herbicidal activity, tomato; conditions: Solanum lycopersicum, pre-emergence, 336 h; Pre, 4 lb/A
Method in brief: as §1

[5] = tested on: velvetleaf (Abutilon theophrasti); assay: Preemergence herbicidal activity, velvetleaf; conditions: Abutilon theophrasti, pre-emergence, 336 h; Pre, 4 lb/A
Method in brief: as §1

[6] = tested on: barnyardgrass (Echinochloa crusgalli); assay: Preemergence herbicidal activity, barnyardgrass; conditions: Echinochloa crus-galli, pre-emergence, 336 h; Pre, 4 lb/A
Method in brief: (§2)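 Compounds dissolved in acetone, diluted with water, and sprayed onto soil flats at 50 gallons per acre carrier volume at stated lb/A rates. Preemergence: applied immediately after planting; postemergence: applied two weeks after germination.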

[7] = tested on: downybrome (Bromus tectorum); assay: Preemergence herbicidal activity, downybrome; conditions: Bromus tectorum, pre-emergence, 336 h, Pre, 4 lb/A
Method in brief: as §1

[8] = tested on: foxtail (Setaria spp.); assay: Preemergence herbicidal activity, foxtail; conditions: Setaria, pre-emergence, 336 h; Pre, 4 lb/A
Method in brief: as §1

[9] = tested on: yellow nutsedge (Cyperus esculentus); assay: Preemergence herbicidal activity, yellow nutsedge; conditions: Cyperus, pre-emergence, 336 h, 4 lb/A
Method in brief: as §1

[10] = tested on: wild oats (Avena fatua); assay: Preemergence herbicidal activity, wild oats; conditions: Avena fatua, pre-emergence, 336 h, Pre, 4 lb/A; read-out: % control, Wild oat
Method in brief: as §1

[11] = tested on: cocklebur (Xanthium pensylvanicum); assay: Postemergence herbicidal activity, cocklebur; conditions: Xanthium strumarium, post-emergence, 336 h, 4 lb/A
Method in brief: as §1

[12] = tested on: marigold (Tagetes spp.); assay: Postemergence herbicidal activity, marigold; conditions: post-emergence, 336 h, 4 lb/A
Method in brief: as §1

[13] = tested on: morningglory (Ipomoca spp.); assay: Postemergence herbicidal activity, morningglory; conditions: Ipomoea, post-emergence, 336 h, 4 lb/A
Method in brief: as §1

[14] = tested on: tomato (Lycopersicon esculentum); assay: Postemergence herbicidal activity, tomato; conditions: Solanum lycopersicum, post-emergence, 336 h, Post, 4 lb/A
Method in brief: as §1

[15] = tested on: velvetleaf (Abutilon theophrasti); assay: Postemergence herbicidal activity, velvetleaf; conditions: Abutilon theophrasti, post-emergence, 336 h, 4 lb/A
Method in brief: as §2

[16] = tested on: barnyardgrass (Echinochloa crusgalli); assay: Postemergence herbicidal activity, barnyardgrass; conditions: Echinochloa crus-galli, post-emergence, 336 h; Post, 4 lb/A
Method in brief: as §2

[17] = tested on: downybrome (Bromus tectorum); assay: Postemergence herbicidal activity, downybrome; conditions: Bromus tectorum, post-emergence, 336 h, Post, 4 lb/A
Method in brief: as §1

[18] = tested on: foxtail (Setaria spp.); assay: Postemergence herbicidal activity, foxtail; conditions: Setaria, post-emergence, 336 h, Post, 4 lb/A
Method in brief: as §1

[19] = tested on: yellow nutsedge (Cyperus esculentus); assay: Postemergence herbicidal activity, yellow nutsedge; conditions: Cyperus, post-emergence, 336 h, 4 lb/A
Method in brief: as §1

[20] = tested on: wild oats (Avena fatua); assay: Postemergence herbicidal activity, wild oats; conditions: Avena fatua, post-emergence, 336 h, Post, 4 lb/A; read-out: % control, Wild oat
Method in brief: as §1

Compound | pest or weed control at 4483.4 g/ha [1] [%] | pest or weed control at 4483.4 g/ha [2] [%] | pest or weed control at 4483.4 g/ha [3] [%] | pest or weed control at 4483.4 g/ha [4] [%] | pest or weed control at 4483.4 g/ha [5] [%] | pest or weed control at 4483.4 g/ha [6] [%] | pest or weed control at 4483.4 g/ha [7] [%] | pest or weed control at 4483.4 g/ha [8] [%] | pest or weed control at 4483.4 g/ha [9] [%] | pest or weed control at 4483.4 g/ha [10] [%] | pest or weed control at 4483.4 g/ha [11] [%] | pest or weed control at 4483.4 g/ha [12] [%] | pest or weed control at 4483.4 g/ha [13] [%] | pest or weed control at 4483.4 g/ha [14] [%] | pest or weed control at 4483.4 g/ha [15] [%] | pest or weed control at 4483.4 g/ha [16] [%] | pest or weed control at 4483.4 g/ha [17] [%] | pest or weed control at 4483.4 g/ha [18] [%] | pest or weed control at 4483.4 g/ha [19] [%] | pest or weed control at 4483.4 g/ha [20] [%]
CCOC(=O)C(C)Oc1ccc([S+]([O-])c2ccccc2C(F)(F)F)cc1 (stereo not drawn) [Example 49, Ethyl 2-[4-(2-trifluoromethylphenylsulfinyl)phenoxy]propionate] | 0 | 0 | 0 | 0 | 0 | 0 | 0 | 0 | 0 | 0 | 0 | 0 | 0 | 20 | 20 | 20 | 0 | 20 | 0 | 30
CCOC(=O)C(C)Oc1ccc([S+]([O-])c2cccc(C(F)(F)F)c2)cc1 (stereo not drawn) [Example 50] | 0 | 0 | 0 | 0 | 0 | 0 | 0 | 0 | 0 | 0 | 0 | 0 | 0 | 20 | 0 | 20 | 0 | 0 | 0 | 20
CCOC(=O)C(C)Oc1ccc([S+]([O-])c2ccc(C(F)(F)F)cc2)cc1 (stereo not drawn) [Example 51] | 0 | 0 | 0 | 0 | 0 | 0 | 0 | 0 | 0 | 0 | 0 | 0 | 0 | 0 | 0 | 20 | 0 | 0 | 0 | 20
